Results from patent publication US20230373989A1, “N-PHENYLAMINOCARBONYL PYRIDINO-, PYRIMIDINO AND BENZO-TROPANES AS MODULATORS OF GPR65” (PATHIOS THERAPEUTICS LIMITED, priority 2020, published 2023).

These compounds were tested against T1, human recombinant GPR65 (Homo sapiens, UniProt Q8IYL9) (assay: Human GPR65 cAMP HTRF antagonist assay). Settings: not given.
T1 construct: host or cells: 1321N1 human astrocytoma cells (1321N1-hrGPR65)
T1 sequence (Q8IYL9 whole entry): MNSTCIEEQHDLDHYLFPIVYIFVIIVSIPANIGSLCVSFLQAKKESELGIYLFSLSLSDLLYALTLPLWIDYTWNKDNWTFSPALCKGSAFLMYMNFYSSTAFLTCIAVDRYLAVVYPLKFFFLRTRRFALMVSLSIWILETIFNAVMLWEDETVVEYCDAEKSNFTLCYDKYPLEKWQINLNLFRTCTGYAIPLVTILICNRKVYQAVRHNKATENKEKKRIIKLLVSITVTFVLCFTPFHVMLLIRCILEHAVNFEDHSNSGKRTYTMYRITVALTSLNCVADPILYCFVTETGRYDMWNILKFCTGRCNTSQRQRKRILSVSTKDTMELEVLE
Format: cell-based
Description: In one preferred embodiment, the compound prevents the increase in cytoplasmic cAMP levels expected following GPR65 activation at acidic pH. This prevention of cAMP accumulation in turn prevents downstream signalling through ICER, as described above. The “Human GPR65 cyclic adenosine monophosphate (cAMP) Homogeneous Time Resolved Fluorescence (HTRF) antagonist assay”, or simply “cAMP assay”, as described in the accompanying examples, can be used to measure the potency of GPR65 modulators, which is expressed as the concentration of compound required to reduce the increase in cAMP concentration upon GPR65 activation by 50% (i.e. an IC50).
Human GPR65 Cyclic Adenosine Monophosphate (cAMP) Homogeneous Time Resolved Fluorescence (HTRF) Antagonist Assay Procedure
IC50 data was obtained by the following procedure:
1321N1 human astrocytoma cells stably expressing human recombinant GPR65 (1321N1-hrGPR65 cells, EuroscreenFast) were cultured according to the vendor's instructions.
Compounds were tested for their ability to antagonise GPR65, through measuring the concentration of cytoplasmic cAMP following treatment of the cells at a pH of 7.2 to activate GPR65 signalling and addition of the compound to be tested. The extent to which the expected rise in cAMP concentration upon GPR65 activation was suppressed by the added compound is indicative of its potency. The assay was carried out according to EuroscreenFast assay methodology as follows.
On the day of the assay, test compounds were added to 384-well, low volume, white microtiter plates by acoustic dispensing. KRH buffer (5 mM KCl, 1.25 mM MgSO4, 124 mM NaCl, 25 mM HEPES, 13.3 mM Glucose, 1.25 mM KH2PO4 and 1.45 mM CaCl2) was adjusted to pH 6.5, pH 7.6 and pH 8.4 by adding NaOH. 1321N1-hGPR65 cells were rapidly thawed and diluted in KRH, pH 7.6 prior to centrifugation at 300×g for 5 min and resuspension in assay buffer (KRH, pH 7.6, supplemented with 1 mM 3-isobutyl-1-methylxanthine (IBMX) and 200 μM ethylenediaminetetraacetic acid (EDTA)). Cells were added to assay plates at a density of 2,000 cells per well in a volume of 5 μl. Assay plates were briefly centrifuged at 100×g and then incubated at room temperature for 30 min. Cells were stimulated by the addition of 5 μL KRH, pH 6.5, to achieve an assay pH of 7.2, while control wells received 5 μl KRH, pH 8.4 to achieve an assay pH of 7.9. Assay plates were briefly centrifuged at 100×g and then incubated at room temperature for 30 min.
Accumulation of cAMP was detected by cAMP HTRF kit (Cisbio). d2-labeled cAMP and cryptate-labeled anti-cAMP antibody in Lysis and Detection Buffer (Cisbio) were added to assay plates, and the plates were incubated at room temperature for 1 h. HTRF measurements were performed using a Pherastar FSX instrument. Acceptor and donor emission signals were measured at 665 nm and 620 nm, respectively, and HTRF ratios were calculated as signal665 nm/signal620 nm×104. Data were normalised to high and low control values and fitted with 4-parameter logistic regression to determine hGPR65 IC50 values for the test compounds, which are shown in Table 1.
`O=C(Nc1ccc(Cl)c(Cl)c1)N1C2CCC1c1ccc(F)cc1C2` (racemic) [Compound 74, (±)-N-(3,4-Dichlorophenyl)-2-fluoro-6,7,8,9-tetrahydro-5H-5,8-epiminobenzo[7]annulene-10-carboxamide] was tested, and the IC50 was < 0.5 µM. `O=C(Nc1ccc(C(F)(F)F)c(Cl)c1)N1C2CCC1c1ccc(F)cc1C2` (racemic) [Compound 75, (±)-N-(3-Chloro-4-(trifluoromethyl)phenyl)-2-fluoro-6,7,8,9-tetrahydro-5H-5,8-epiminobenzo[7]annulene-10-carboxamide] was tested, and the IC50 was < 0.5 µM. With `O=C(Nc1ccc(Cl)c(Cl)c1)N1C2CCC1c1c[nH]c(=O)cc1C2` (racemic) [Compound 76, (±)-N-(3,4-Dichlorophenyl)-3-oxo-3,5,6,7,8,9-hexahydro-2H-6,9-epiminocyclohepta[c]pyridine-10-carboxamide] the IC50 was < 0.5 µM. In the case of `O=C(Nc1ccc(Cl)c(Cl)c1)N1C2CCC1c1ccnc(Cl)c1C2` (racemic) [Compound 77, (±)-1-Chloro-N-(3,4-dichlorophenyl)-6,7,8,9-tetrahydro-5H-5,8-epiminocyclohepta[c]pyridine-10-carboxamide], the IC50 is reported as < 0.5 µM. `O=C(Nc1ccc(Cl)c(Cl)c1)N1C2CCC1c1ccnc(F)c1C2` (racemic) [Compound 109, (±)-N-(3,4-Dichlorophenyl)-1-fluoro-6,7,8,9-tetrahydro-5H-5,8-epiminocyclohepta[c]pyridine-10-carboxamide] was tested, and the IC50 was < 0.5 µM. With `O=C(Nc1cc(Cl)c(C(F)(F)F)cc1F)N1C2CCC1c1c[nH]c(=O)c(F)c1C2` (racemic) [Compound 138, (±)-N-(5-Chloro-2-fluoro-4-(trifluoromethyl)phenyl)-4-fluoro-3-oxo-3,5,6,7,8,9-hexahydro-2H-6,9-epiminocyclohepta[c]pyridine-10-carboxamide] the IC50 was < 0.5 µM. `O=C(Nc1cc(Cl)c(Cl)cc1F)N1C2CCC1c1c[nH]c(=O)c(F)c1C2` (racemic) [Compound 139, (±)-N-(4,5-Dichloro-2-fluorophenyl)-4-fluoro-3-oxo-3,5,6,7,8,9-hexahydro-2H-6,9-epiminocycloheptan[c]pyridine-10-carboxamide] was tested, and the IC50 was < 0.5 µM.

Same assay, conditions: 1321N1-hrGPR65 cells, assay pH 7.2, cAMP HTRF; read-out: hGPR65 IC50 (activity class)
In the case of `Nc1ccc2c(c1)CC1CCC2N1C(=O)Nc1ccc(Cl)c(Cl)c1` (racemic) [Compound 73, (±)-2-Amino-N-(3,4-dichlorophenyl)-6,7,8,9-tetrahydro-5H-5,8-epiminobenzo[7]annulene-10-carboxamide], the IC50 is reported as > 5 µM. Work on `O=C(Nc1ccc(Cl)c(Cl)c1)N1C2CCC1c1cc(F)ccc1C2` (racemic) [Compound 80, (±)-N-(3,4-Dichlorophenyl)-3-fluoro-6,7,8,9-tetrahydro-5H-5,8-epiminobenzo[7]annulene-10-carboxamide] yielded an IC50 of 0.5 to 5 µM. With `O=C(Nc1ccc(C(F)(F)F)c(Cl)c1)N1C2CCC1c1cc(F)ccc1C2` (racemic) [Compound 81, (±)-N-(3-Chloro-4-(trifluoromethyl)phenyl)-3-fluoro-6,7,8,9-tetrahydro-5H-5,8-epiminobenzo[7]annulene-10-carboxamide] the IC50 was 0.5 to 5 µM. `CC(C)(C)OC(=O)Nc1nccc2c1C1CCC(C2)N1C(=O)Nc1ccc(Cl)c(Cl)c1` (racemic) [Compound 82, tert-butyl ((±)-10-((3,4-dichlorophenyl)carbamoyl)-6,7,8,9-tetrahydro-5H-6,9-epiminocyclohepta[c]pyridin-1-yl)carbamate] was tested, and the IC50 was 0.5 to 5 µM. Work on `O=C(Nc1ccc(Cl)c(Cl)c1)N1C2CCC1c1cccc(F)c1C2` (racemic) [Compound 83, (±)-N-(3,4-Dichlorophenyl)-1-fluoro-6,7,8,9-tetrahydro-5H-5,8-epiminobenzo[7]annulene-10-carboxamide] yielded an IC50 of 0.5 to 5 µM. In the case of `O=C(Nc1ccc(C(F)(F)F)c(Cl)c1)N1C2CCC1c1cccc(F)c1C2` (racemic) [Compound 84, (±)-N-(3-Chloro-4-(trifluoromethyl)phenyl)-1-fluoro-6,7,8,9-tetrahydro-5H-5,8-epiminobenzo[7]annulene-10-carboxamide], the IC50 is reported as 0.5 to 5 µM. In the case of `O=C(Nc1ccc(Cl)c(Cl)c1)N1C2CCC1c1cccnc1C2` (racemic) [Compound 87, (±)-N-(3,4-Dichlorophenyl)-6,7,8,9-tetrahydro-5H-5,8-epiminocyclohepta[b]pyridine-10-carboxamide], the IC50 is reported as > 5 µM. `O=C(Nc1ccc(Cl)c(Cl)c1)N1C2CCC1c1cncc(F)c1C2` (racemic) [Compound 95, (±)-N-(3,4-Dichlorophenyl)-4-fluoro-6,7,8,9-tetrahydro-5H-6.9-epiminocyclohepta[c]pyridine-10-carboxamide] was tested, and the IC50 was 0.5 to 5 µM. `O=C(Nc1ccc(Cl)c(Cl)c1)N1C2CCC1c1cnc(Br)cc1C2` (racemic) [Compound 99, (±)-3-Bromo-N-(3,4-dichlorophenyl)-6,7,8,9-tetrahydro-5H-6,9-epiminocyclohepta[c]pyridine-10-carboxamide] was tested, and the IC50 was > 5 µM. For `O=C(Nc1ccc(Cl)c(Cl)c1)N1C2CCC1c1cnc(Cl)cc1C2` (racemic) [Compound 100, (±)-3-Chloro-N-(3,4-dichlorophenyl)-6,7,8,9-tetrahydro-5H-6,9-epiminocyclohepta[c]pyridine-10-carboxamide], the IC50 was 0.5 to 5 µM. `O=C(Nc1ccc(Cl)c(Cl)c1)N1C2CCC1c1cnccc1C2` (racemic) [Compound 104, (±)-N-(3,4-Dichlorophenyl)-6,7,8,9-tetrahydro-5H-6,9-epiminocyclohepta[c]pyridine-10-carboxamide] was tested, and the IC50 was 0.5 to 5 µM. For `O=C(Nc1ccc(Cl)c(Cl)c1)N1C2CCC1C(F)c1ncncc12` (racemic) [Compound 113, Cis-(±)-N-(3,4-Dichlorophenyl)-9-fluoro-6,7,8,9-tetrahydro-5H-5,8-epiminocyclohepta[d]pyrimidine-10-carboxamide], the IC50 was 0.5 to 5 µM. In the case of `O=C(Nc1ccc(Cl)c(Cl)c1)N1C2CCC1C(F)c1ncncc12` (racemic) [Compound 114, trans-(±)-N-(3,4-Dichlorophenyl)-9-fluoro-6,7,8,9-tetrahydro-5H-5,8-epiminocyclohepta[d]pyrimidine-10-carboxamide], the IC50 is reported as 0.5 to 5 µM. `O=C(Nc1ccc(Cl)c(Cl)c1)N1C2CCC1c1cnc(F)c(F)c1C2` (racemic) [Compound 135, (±)-N-(3,4-Dichlorophenyl)-3,4-difluoro-6,7,8,9-tetrahydro-5H-6,9-epiminocyclohepta[c]pyridine-10-carboxamide] showed an IC50 of 0.5 to 5 µM. `O=C(Nc1cc(Cl)c(C(F)(F)F)cc1F)N1C2CCC1c1cnc(F)c(F)c1C2` (racemic) [Compound 136, (±)-N-(5-Chloro-2-fluoro-4-(trifluoromethyl)phenyl)-3,4-difluoro-6,7,8,9-tetrahydro-5H-6,9-epiminocyclohepta[c]pyridine-10-carboxamide] gave an IC50 of 0.5 to 5 µM. With `O=C(Nc1cc(Cl)c(Cl)cc1F)N1C2CCC1c1cnc(F)c(F)c1C2` (racemic) [Compound 137, (±)-N-(4,5-Dichloro-2-fluorophenyl)-3,4-difluoro-6,7,8,9-tetrahydro-5H-6,9-epiminocyclohepta[c]pyridine-10-carboxamide] the IC50 was 0.5 to 5 µM. `O=C(Nc1ccc(Cl)c(Cl)c1)N1C2CCC1c1ccnc(Br)c1C2` (racemic) [Compound 148, (±)-1-Bromo-N-(3,4-dichlorophenyl)-6,7,8,9-tetrahydro-5H-5,8-epiminocyclohepta[c]pyridine-10-carboxamide] was tested, and the IC50 was 0.5 to 5 µM. In the case of `COc1cc(NC(=O)N2C3CCC2c2ccnc(F)c2C3)ccc1-c1cnco1` (racemic) [Compound 152, (±)-1-Fluoro-N-(3-methoxy-4-(oxazol-5-yl)phenyl)-6,7,8,9-tetrahydro-5H-5,8-epiminocyclohepta[c]pyridine-10-carboxamide], the IC50 is reported as 0.5 to 5 µM. With `O=C(Nc1ccc(F)c(Cl)c1F)N1C2CCC1c1ccnc(F)c1C2` (racemic) [Compound 154, (±)-N-(3-Chloro-2,4-difluorophenyl)-1-fluoro-6,7,8,9-tetrahydro-5H-5,8-epiminocyclohepta[c]pyridine-10-carboxamide] the IC50 was 0.5 to 5 µM.
